{"source": "patent US20060063179A1", "about": "“MIFL- a new partner gene of MLL and methods of use thereof” (priority 2004, published 2006)"}
{"target": "human DNA topoisomerase II (Homo sapiens, UniProt P11388)", "sequence (P11388 whole entry)": "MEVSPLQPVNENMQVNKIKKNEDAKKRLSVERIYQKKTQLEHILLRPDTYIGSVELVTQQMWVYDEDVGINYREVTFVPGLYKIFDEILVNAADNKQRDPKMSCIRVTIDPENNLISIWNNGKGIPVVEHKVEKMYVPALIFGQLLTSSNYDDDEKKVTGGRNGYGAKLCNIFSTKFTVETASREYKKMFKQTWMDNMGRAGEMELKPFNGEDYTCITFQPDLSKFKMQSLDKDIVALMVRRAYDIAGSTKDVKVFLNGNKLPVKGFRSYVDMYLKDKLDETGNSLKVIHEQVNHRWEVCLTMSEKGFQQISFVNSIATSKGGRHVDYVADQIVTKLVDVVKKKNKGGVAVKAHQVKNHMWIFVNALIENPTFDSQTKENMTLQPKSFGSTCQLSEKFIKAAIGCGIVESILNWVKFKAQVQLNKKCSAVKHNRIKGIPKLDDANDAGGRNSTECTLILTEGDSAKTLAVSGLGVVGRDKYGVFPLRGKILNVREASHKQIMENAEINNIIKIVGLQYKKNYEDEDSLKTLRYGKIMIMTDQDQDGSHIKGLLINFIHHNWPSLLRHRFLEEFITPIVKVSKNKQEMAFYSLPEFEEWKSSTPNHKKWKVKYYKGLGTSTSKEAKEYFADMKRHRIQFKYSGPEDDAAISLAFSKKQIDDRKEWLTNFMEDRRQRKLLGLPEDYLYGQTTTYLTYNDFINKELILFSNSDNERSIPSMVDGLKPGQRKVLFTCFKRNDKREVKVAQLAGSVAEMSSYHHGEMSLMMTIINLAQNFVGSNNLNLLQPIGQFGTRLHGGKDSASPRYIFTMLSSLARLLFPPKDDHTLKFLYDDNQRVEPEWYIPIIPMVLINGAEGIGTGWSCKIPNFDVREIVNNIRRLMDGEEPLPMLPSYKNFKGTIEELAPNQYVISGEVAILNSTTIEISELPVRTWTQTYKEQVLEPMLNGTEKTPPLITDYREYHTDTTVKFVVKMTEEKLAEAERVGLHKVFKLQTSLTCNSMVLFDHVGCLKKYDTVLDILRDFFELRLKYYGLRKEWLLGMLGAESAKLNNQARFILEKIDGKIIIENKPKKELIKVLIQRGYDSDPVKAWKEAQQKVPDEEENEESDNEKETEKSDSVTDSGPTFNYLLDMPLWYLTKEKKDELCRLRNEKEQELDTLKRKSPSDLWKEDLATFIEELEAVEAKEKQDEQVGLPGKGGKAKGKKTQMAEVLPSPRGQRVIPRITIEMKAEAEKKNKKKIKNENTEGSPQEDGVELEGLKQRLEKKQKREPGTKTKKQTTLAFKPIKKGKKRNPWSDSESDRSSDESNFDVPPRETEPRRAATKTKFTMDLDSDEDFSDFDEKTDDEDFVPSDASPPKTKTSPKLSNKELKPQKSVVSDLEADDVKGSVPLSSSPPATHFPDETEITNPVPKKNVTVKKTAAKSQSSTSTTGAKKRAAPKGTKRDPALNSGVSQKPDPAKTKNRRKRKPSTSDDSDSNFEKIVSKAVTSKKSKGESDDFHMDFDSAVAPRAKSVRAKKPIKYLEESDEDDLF", "experiment": "DNA topoisomerase II in vitro cleavage assay", "type": "biochemical", "conditions": "singly 5' end-labeled MLL intron 8 and MIFL intron 8 substrates; 147 nM enzyme, 1 mM ATP, 20 μM drug, 10 min 37° C.", "protocol": "FIGS. 8A-8D provide images of autoradiographs depicting MLL bcr positions 5382-5570 (FIGS. 8A and 8B) or positions 1387 to 1424 in MIFL intron 8 (FIGS. 8C and 8D) identified utilizing topoisomerase II in vitro cleavage assays. Autoradiographs show cleavage products after 10 minute incubation at 37° C. of 25 ng (30,000 cpm) singly 5' end-labeled DNA with 147 nM human DNA topoisomerase II, 1 mM ATP and, where indicated, 20 μM etoposide, etoposide catechol, etoposide quinone or doxorubicin (FIGS. 8A and 8C), or lower doxorubicin concentrations (FIGS. 8B and 8D). Specified reactions were incubated for an additional 10 minutes at 75° C. before trapping the covalent complexes (FIGS. 8A and 8C). The 5' side (-1 position) of the cleavage sites are shown by the dashes at far right. Fragments of the MLL bcr spanning positions 5382-5570 in intron 8 or fragments of MIFL spanning positions 1309-1479 in intron 8 were subcloned into BamHI-NotI sites of TOPO pCR2.1 (Invitrogen). Twenty micrograms of plasmid DNA first was treated with 400 units T4 DNA ligase (New England Biolabs; Beverly, Mass.) for 1 hour to ensure that the substrates were not nicked. […] Calf intestinal phosphatase was inactivated in 5 mM EDTA (pH 8.0) and the DNA was PCI-extracted and ethanol precipitated. The DNA was then 5' end-labeled with [γ-^32P]ATP (Amersham; Arlington Heights, Ill.) and T4 polynucleotide kinase (New England Biolabs) as described (Felix et al. (1995) Cancer Res., 55:4287-92). Alternatively, to prepare cold substrate DNA, 20 μg of BamHI/NotI-digested, dephosphorylated plasmid were phosphorylated with 10 μM ATP (Boehringer Mannheim; Indianapolis, Ind.) in otherwise similar reactions. […] DNA recovery was quantitated by optical density measurement and scintillation counting. […] Cleavage products were visualized by autoradiography and quantitated using a PhosphorImager and ImageQuant software (Molecular Dynamics; Sunnyvale, Calif.)."}
{"smiles": "COc1cccc2c1C(=O)c1c(O)c3c(c(O)c1C2=O)C[C@@](O)(C(=O)CO)C[C@@H]3O[C@H]1C[C@H](N)[C@H](O)[C@H](C)O1", "note": "[dox, doxorubicin]", "formation of DNA topoisomerase II cleavage complexes at or near the translocation breakpoints": "marginal activity"}
{"smiles": "COC1=CC(C2c3cc4c(cc3C(O[C@@H]3O[C@@H]5COC(C)O[C@H]5[C@H](O)[C@H]3O)C3COC(=O)C23)OCO4)=CC(=O)C1=O", "note": "(stereo partly drawn) [etoposide quinone]", "formation of DNA topoisomerase II cleavage complexes at or near the translocation breakpoints": "increased the formation of DNA topoisomerase II cleavage complexes"}
{"smiles": "COc1cc([C@@H]2c3cc4c(cc3[C@@H](O[C@@H]3O[C@@H]5CO[C@@H](C)O[C@H]5[C@H](O)[C@H]3O)[C@H]3COC(=O)[C@H]23)OCO4)cc(OC)c1O", "note": "[etoposide]", "formation of DNA topoisomerase II cleavage complexes at or near the translocation breakpoints": "increased the formation of DNA topoisomerase II cleavage complexes"}
